From patent publication US20040102423A1, “Spironolactone and angiotensin II antagonist combination therapy for treatment of congestive heart failure” (G.D. Searle & Co., priority 1995, published 2004) come the findings set out here.

One assay relates to rabbit aortic rings. The assay is described as follows: Assay B: In vitro vascular smooth muscle response for AII (antagonist activity, pA2). The format is cell-based. The note with it: Oryctolagus cuniculus, two values in a cell = two determinations. The protocol:
Assay B: In Vitro Vascular Smooth Muscle-Response for AII
The compounds of the invention were tested for antagonist activity in rabbit aortic rings. Male New Zealand white rabbits (2-2.5 kg) were sacrificed using an overdose of pentobarbital and exsanguinated via the carotid arteries. The thoracic aorta was removed, cleaned of adherent fat and connective tissue and then cut into 3-mm ring segments. The endothelium was removed from the rings by gently sliding a rolled-up piece of filter paper into the vessel lumen. The rings were then mounted in a water-jacketed tissue bath, maintained at 37° C., between moveable and fixed ends of a stainless steel wire with the moveable end attached to an FT03 Grass transducer coupled to a Model 7D Grass Polygraph for recording isometric force responses. The bath was filled with 20 ml of oxygenated (95% oxygen/5% carbon dioxide) Krebs solution of the following composition (mM): 130 NaCl, 15 NaHCO3, […], 1.2 NaH2PO4, 1.2 MgSO4, 2.5 CaCl2, and 11.4 glucose. The preparations were equilibrated for one hour before approximately one gram of passive tension was placed on the rings. Angiotensin II concentration-response curves were then recorded (3×10^−10 to 1×10^−5 M). Each concentration of AII was allowed to elicit its maximal contraction, and then AII was washed out repeatedly for 30 minutes before rechallenging with a higher concentration of AII. Aorta rings were exposed to the test antagonist at 10^−5 M for 5 minutes before challenging with AII. Adjacent segments of the same aorta ring were used for all concentration-response curves in the presence or absence of the test antagonist. The effectiveness of the test compound was expressed in terms of pA2 values and were calculated according to H. O. Schild [Br. J. Pharmacol. Chemother., 2, 189-206 (1947)]. The pA2 value is […] which increases the EC50 value for AII by a factor of two. Each test antagonist was evaluated in aorta rings from two rabbits.

The target in assay [1] is angiotensin II AT1 receptor. In words: Assay A: Angiotensin II binding activity, rat uterine membrane preparation, 125I-AII displacement. The protocol:
Assay A: Antiotensin II Binding Activity
Compounds of the invention were tested for ability to bind to the smooth muscle angiotensin II receptor using a rat uterine membrane preparation. […] Rat uterine membranes were prepared from fresh tissue. All procedures were carried out at 4° C. Uteri were stripped of fat and homogenized in phosphate-buffered saline at pH 7.4 containing 5 mM EDTA. The homogenate was centrifuged at 1500×g for 20 min., and the supernatant was recentrifuged at 100,000×g for 60 min. The pellet was resuspended in buffer consisting of 2 mM EDTA and 50 mM Tris-HCl (pH 7.5) to a final protein concentration of 4 mg/ml. […] The reaction was initiated by the addition of membrane protein and the mixture was incubated at 25° C. for 60 min. The incubation was terminated with ice-cold 50 mM Tris-HCl (pH 7.5) and the mixture was filtered to separate membrane-bound labelled peptide from the free ligand. The incubation tube and filter were washed with ice-cold buffer. Filters were assayed for radioactivity in a Micromedic gamma counter. Nonspecific binding was defined as binding in the presence of 10 μM of unlabelled AII. Specific binding was calculated as total binding minus nonspecific binding. […] Binding data were analyzed by a nonlinear least-squares curve fitting program.

Another assay has as its system pressor response to AII. In words: Assay C: In vivo intragastric pressor assay response for AII antagonists. As to conditions: in vivo pressor response, 3 mg/kg intragastrically; for inhibition in vivo at 3 mg/kg: Rattus norvegicus, po. Further details: species or system Sprague-Dawley rats.

In the assay on rabbit aortic rings, `CCCCc1nc(CCCC)n(Cc2ccc(-c3ccccc3C(=O)OC)cc2)n1` [Compound 12] gave a Kb of 0.00219 µM. The IC50 in assay [1] was found to be 0.006 µM.

The compound `CCCCc1nc(CCCC)n(Cc2ccc(-c3ccccc3C(=O)O)cc2)n1` [Compound 13] had an antagonist equilibrium constant (Kb) in the assay on rabbit aortic rings of 0.002 µM. In assay [1], this compound came in with an IC50 of 0.017 µM.

On to `CCCCc1nc(CCCC)n(Cc2ccc(-c3ccccc3-c3nnn[nH]3)cc2)n1` [Compound 14], for which the antagonist equilibrium constant (Kb) in the assay with rabbit aortic rings is 0.00145 µM. The compound also came in with an IC50 in assay [1] of 0.0072 µM.

`CCCCc1nc(CCCC)n(Cc2ccc(-c3ccccc3C(=O)NN)cc2)n1` [Compound 15]: in the assay with rabbit aortic rings, the Kb is 0.0049 µM. In assay [1], this compound had an IC50 of 0.016 µM.

Take `CCCCc1nc(CCCC)n(Cc2ccc(-c3ccccc3C(=O)NNS(=O)(=O)C(F)(F)F)cc2)n1` [Compound 16]: in the assay on rabbit aortic rings, the Kb was 0.00112 µM. The IC50 in assay [1] was 0.0064 µM.

In turn, `CCCCc1nc(Cl)nn1Cc1ccc(-c2ccccc2C(=O)O)cc1` [Compound 17] gave an antagonist equilibrium constant (Kb) with rabbit aortic rings of 0.00229 µM. In assay [1], this compound registered a 50% inhibitory concentration (IC50) of 0.004 µM.

Consider `CCCCc1nc(Cl)nn1Cc1ccc(-c2ccccc2-c2nnn[nH]2)cc1` [Compound 18], for which the Kb in the assay with rabbit aortic rings was 0.724 µM. The compound further yielded an IC50 in assay [1] of 0.97 µM.

As for `CCCCc1nc(Cl)n(Cc2ccc(-c3ccccc3C(=O)O)cc2)n1` [Compound 19], in the assay with rabbit aortic rings, the antagonist equilibrium constant (Kb) is 6.61 µM. The compound also registered an IC50 in assay [1] of 12 µM.

As for `CCCCc1nc(C(F)(F)CCC)n(Cc2ccc(-c3ccccc3-c3nnn[nH]3)cc2)n1` [Compound 22], in the assay on rabbit aortic rings, the Kb is 0.251 µM. Further, in assay [1], the half-inhibitory concentration (IC50) came to 0.46 µM.

Turning to `CCCCCc1nc(CCCCC)n(Cc2ccc(-c3ccccc3-c3nnn[nH]3)cc2)n1` [Compound 24], in the assay with rabbit aortic rings, the antagonist dissociation constant (Kb) is 0.0275 µM. This compound also returned an IC50 in assay [1] of 0.01 µM.

In turn, `CCCCc1nc(CCC)nn1Cc1ccc(-c2ccccc2-c2nnn[nH]2)cc1` [Compound 25] showed a Kb in the assay with rabbit aortic rings of 0.158 µM. Further, the half-inhibitory concentration (IC50) in assay [1] stood at 0.48 µM.

With `CCCCc1nc(C(OC)OC)nn1Cc1ccc(-c2ccccc2-c2nnn[nH]2)cc1` [Compound 35], the Kb with rabbit aortic rings is 0.0562 µM. In addition, the 50% inhibitory concentration (IC50) in assay [1] was found to be 0.041 µM.

`CCCCc1nc(CCc2ccccc2)n(Cc2ccc(-c3ccccc3-c3nnn[nH]3)cc2)n1` [Compound 36] had a Kb with rabbit aortic rings of 1.2 µM. Further, in assay [1], the half-maximal inhibitory concentration (IC50) was 1.4 µM.

`CCCCc1nc(CCc2ccccc2)nn1Cc1ccc(-c2ccccc2-c2nnn[nH]2)cc1` [Compound 37] had a Kb in the assay with rabbit aortic rings of 0.126 µM. The compound also returned a half-inhibitory concentration (IC50) in assay [1] of 0.34 µM.

In turn, `CCCCc1nc(C(F)(F)C(F)(F)C(F)(F)F)nn1Cc1ccc(-c2ccccc2-c2nnn[nH]2)cc1` [Compound 81] had a Kb with rabbit aortic rings of 0.01 µM.

Compound `CCCCc1nc2cnncc2n1Cc1ccc(-c2ccccc2-c2nnn[nH]2)cc1` [Compound 128] showed a Kb in the assay on rabbit aortic rings of 0.00234 µM. This Kb is about 4.3-fold lower than that of the compound before.

As to `CCCCc1cn(C(C)(C)C)c(=O)n1Cc1ccc(-c2ccccc2-c2nnn[nH]2)nc1` [Compound 212], in the assay with pressor response to AII, 3 mg/kg produced 15% inhibition in vivo and the “Assay C Duration” value turned out to be 180 min. Further, the IC50 in assay [1] was 0.023 µM.

For the compound `CCCCc1cn(CCC2CC2)c(=O)n1Cc1ccc(-c2ccccc2-c2nnn[nH]2)nc1` [Compound 217], in the assay on pressor response to AII, the inhibition in vivo at 3 mg/kg turned out to be 65% and the “Assay C Duration” value is greater than 180 min. This compound displayed an IC50 in assay [1] of 0.0094 µM.

As for `CCCCc1cn(CCc2cccs2)c(=O)n1Cc1ccc(-c2ccccc2-c2nnn[nH]2)nc1` [Compound 220], in the assay with pressor response to AII, the inhibition in vivo at 3 mg/kg is 75% and the “Assay C Duration” value stood at 120 min. For the same compound, the half-maximal inhibitory concentration (IC50) in assay [1] worked out at 0.007 µM.

For the compound `CCCCc1cn(CCc2ccccc2)c(=O)n1Cc1ccc(-c2ccccc2-c2nnn[nH]2)nc1` [Compound 221], in the assay on pressor response to AII, testing at 3 mg/kg gave an inhibition in vivo of 25% and the “Assay C Duration” value was greater than 180 min. Moreover, the IC50 in assay [1] was determined as 0.0048 µM.

As to `CCCCc1cn(CCC2=CCCC2)c(=O)n1Cc1ccc(-c2ccccc2-c2nnn[nH]2)nc1` [Compound 223], in the assay with pressor response to AII, the inhibition in vivo at 3 mg/kg was 20% and the “Assay C Duration” value was greater than 180 min. Besides, the IC50 in assay [1] was found to be 0.014 µM.

As to `CCCCc1cn(-c2ccccc2C)c(=O)n1Cc1ccc(-c2ccccc2-c2nnn[nH]2)nc1` [Compound 228], in the assay on pressor response to AII, the inhibition in vivo at 3 mg/kg turned out to be 80% and the “Assay C Duration” value is greater than 180 min. Further, in assay [1], the IC50 stood at 0.0045 µM.

For the compound `CCCCc1cn(-c2ccccc2OC)c(=O)n1Cc1ccc(-c2ccccc2-c2nnn[nH]2)nc1` [Compound 229], in the assay with pressor response to AII, the inhibition in vivo at 3 mg/kg came to 40% and the “Assay C Duration” value is greater than 180 min. The IC50 in assay [1] worked out at 0.019 µM.

With `CCCCc1cn(-c2ccccc2C(C)C)c(=O)n1Cc1ccc(-c2ccccc2-c2nnn[nH]2)nc1` [Compound 230], in the assay with pressor response to AII, testing at 3 mg/kg gave an inhibition in vivo of 25% and the “Assay C Duration” value was greater than 180 min. Besides, the IC50 in assay [1] was 0.0026 µM.

As to `CCCCc1cn(-c2c(F)cccc2F)c(=O)n1Cc1ccc(-c2ccccc2-c2nnn[nH]2)nc1` [Compound 231], in the assay on pressor response to AII, the inhibition in vivo at 3 mg/kg is 75% and the “Assay C Duration” value was greater than 180 min. The compound further returned a half-inhibitory concentration (IC50) in assay [1] of 0.0036 µM.

The compound `CCCCc1cn(CCCC)c(=O)n1Cc1ccc(-c2ccccc2-c2nnn[nH]2)cn1` [Compound 234] returned an inhibition in vivo at 3 mg/kg with pressor response to AII of 20%. In assay [1], this compound had an IC50 of 0.005 µM.

Regarding `CCCCc1cn(CCCC)c(=O)n1Cc1ccc(-c2cnccc2-c2nnn[nH]2)cc1` [Compound 236], in the assay with pressor response to AII, testing at 3 mg/kg gave an inhibition in vivo of 70% and the “Assay C Duration” value is greater than 180 min. The IC50 in assay [1] is 0.0049 µM.

As for `CCCCc1cn(CCCC)c(=O)n1Cc1ccc(-c2cccnc2-c2nnn[nH]2)cc1` [Compound 238], in the assay with pressor response to AII, at 3 mg/kg the inhibition in vivo was 15% and the “Assay C Duration” value was greater than 180 min. The same compound displayed a half-inhibitory concentration (IC50) in assay [1] of 0.0017 µM.

Regarding `CCCCc1cn(-c2c(OC)cccc2OC)c(=O)n1Cc1ccc(-c2ccccc2-c2nnn[nH]2)nc1` [Compound 241], in the assay with pressor response to AII, the inhibition in vivo at 3 mg/kg was 40% and the “Assay C Duration” value was greater than 180 min. For the same compound, the IC50 in assay [1] is 0.0069 µM.

As to `CCCCc1cn(-c2cccn2CC)c(=O)n1Cc1ccc(-c2ccccc2-c2nnn[nH]2)nc1` [Compound 249], in the assay with pressor response to AII, 3 mg/kg produced 20% inhibition in vivo and the “Assay C Duration” value was greater than 180 min. The IC50 in assay [1] was determined as 0.0044 µM.

Turning to `CCCCc1nc(CCCC)n(Cc2ccc(-c3ccccc3-c3nnn[nH]3)cn2)n1` [Compound 250], testing at 3 mg/kg in the assay on pressor response to AII gave an inhibition in vivo of 0%. Besides, the IC50 in assay [1] was 0.043 µM.

As to `CCCCc1nc(CCCC)n(Cc2ccc(-c3ncccc3-c3nnn[nH]3)cc2)n1` [Compound 256], in the assay on pressor response to AII, the inhibition in vivo at 3 mg/kg came to 30% and the “Assay C Duration” value is greater than 180 min. Besides, the IC50 in assay [1] is 0.0041 µM.

For the compound `CCCCc1nc(C(=O)N(C)C(C)(C)C)n(Cc2ccc(-c3ccccc3-c3nnn[nH]3)nc2)n1` [Compound 267], in the assay on pressor response to AII, at 3 mg/kg the inhibition in vivo was 25% and the “Assay C Duration” value was greater than 180 min. The compound also returned an IC50 in assay [1] of 0.025 µM.

Take `CCCCc1nc(C(=O)NC)nn1Cc1ccc(-c2ccccc2-c2nnn[nH]2)nc1` [Compound 268]: in the assay on pressor response to AII, at 3 mg/kg the inhibition in vivo was 0%. The compound also yielded an IC50 in assay [1] of 0.52 µM.

`CCCCc1nc(-c2ccccc2)n(Cc2ccc(-c3ccccc3-c3nnn[nH]3)nc2)n1` [Compound 271] came in with an inhibition in vivo at 3 mg/kg with pressor response to AII of 20%. This compound came in with an IC50 in assay [1] of 0.014 µM.

Consider `CCCCc1nc(-c2ccccc2C)nn1Cc1ccc(-c2ccccc2-c2nnn[nH]2)nc1` [Compound 272], for which, in the assay with pressor response to AII, the inhibition in vivo at 3 mg/kg turned out to be 70% and the “Assay C Duration” value is greater than 180 min. The same compound showed an IC50 in assay [1] of 0.097 µM.

Broadly, the Kb is the affinity of an antagonist, worked out from how it opposes an agonist. Low readings indicate higher antagonist affinity, high ones lower antagonist affinity. What is called IC50 is the point on the concentration scale where inhibition reaches its midpoint. One may read the inhibition in vivo as the share of the control response that was lost under treatment.
